Laboratory results published in patent US4820695A, “C-20-dihydro-deoxy-(cyclic amino)-derivatives of macrolide antibiotics” (priority 1987, dated 1989).
In brackets after ≈: the same amount, converted by molar mass. Like-named read-outs stand apart in the source and are kept apart here.

Tests used:
Staphyloccus aureus X1.1 = experiment: MIC, standard agar-dilution assay (Table IX); format: cell-based, Staphylococcus aureus
[1] = system: Staphylococcus aureus V41; experiment: MIC, standard agar-dilution assay (Table IX); format: cell-based; settings: Staphylococcus aureus V41, Penicillin-resistant strain
[2] = system: Staphylococcus aureus X400; experiment: MIC, standard agar-dilution assay (Table IX); format: cell-based; settings: Staphylococcus aureus X400, Methicillin-resistant strain
[3] = system: Staphylococcus aureus S13E; experiment: MIC, standard agar-dilution assay (Table IX); format: cell-based
[4] = system: Staphylococcus epidermidis EPI1; experiment: MIC, standard agar-dilution assay (Table IX); format: cell-based
[5] = system: Staphylococcus epidermidis 222; experiment: MIC, standard agar-dilution assay (Table IX); format: cell-based
[6] = system: Streptococcus pyogenes C203; experiment: MIC, standard agar-dilution assay (Table IX); format: cell-based
[7] = system: Streptococcus pneumoniae Park I; experiment: MIC, standard agar-dilution assay (Table IX); format: cell-based
[8] = system: Streptococcus Group D X66; experiment: MIC, standard agar-dilution assay (Table IX); format: cell-based
[9] = system: Streptococcus Group D 2041; experiment: MIC, standard agar-dilution assay (Table IX); format: cell-based
[10] = system: Haemophilus influenzae C.L.; experiment: MIC, standard agar-dilution assay (Table IX); format: cell-based; settings: Ampicillin-sensitive strain
[11] = system: Haemophilus influenzae 76; experiment: MIC, standard agar-dilution assay (Table IX); format: cell-based; settings: Haemophilus influenzae 76, Ampicillin-resistant strain
Escherichia coli N10 = experiment: MIC, standard agar-dilution assay (Table IX); format: cell-based
Escherichia coli EC14 = experiment: MIC, standard agar-dilution assay (Table IX); format: cell-based
Escherichia coli TEM = experiment: MIC, standard agar-dilution assay (Table IX); format: cell-based
Klebsiella X26 = experiment: MIC, standard agar-dilution assay (Table IX); format: cell-based
[12] = system: Mycoplasma gallisepticum 29C; experiment: MIC, broth-dilution microtiter test (Table X); format: cell-based
Source text: (§1) The MIC's in Table X were obtained using conventional broth-dilution microtiter tests.

[13] = system: Mycoplasma hyopneumoniae S5972; experiment: MIC, broth-dilution microtiter test (Table X); format: cell-based
Source text: as §1

Mycoplasma hyorhinis 29E = experiment: MIC, broth-dilution microtiter test (Table X); format: cell-based
Source text: as §1

Mycoplasma synoviae 40A = experiment: MIC, broth-dilution microtiter test (Table X); format: cell-based
Source text: as §1

[14] = system: Pasteurella hemolytica 22C; experiment: MIC, broth-dilution microtiter test (Table X); format: cell-based
Source text: as §1

[15] = system: Pasteurella multocida 17E; experiment: MIC, broth-dilution microtiter test (Table X); format: cell-based; settings: Bovine isolate
Source text: as §1

[16] = system: Pasteurella multocida 60A; experiment: MIC, broth-dilution microtiter test (Table X); format: cell-based; settings: Avian isolate
Source text: as §1

Staphylococcus aureus = experiment: MIC, broth-dilution microtiter test (Table X); format: cell-based
Source text: as §1

Streptococcus sp. 19F = experiment: MIC, broth-dilution microtiter test (Table X); format: cell-based
Source text: as §1

Pasteurella multocida [17] = experiment: Pasteurella infection in one-day-old chicks, subcutaneous administration (Table XII); format: in vivo; settings: Administered subcutaneously, 30 mg/kg × 2, 1 and 4 hours post-challenge
Description: (§2) Many of the C-20 modified derivatives of this invention have also shown in vivo antibacterial activity against infections induced by gram-negative bacteria. Tables XII and XIII summarize the results of tests in which illustrative compounds were evaluated against a Pasteurella infection in one-day-old chicks. The compounds were administered parenterally or orally after challenge of the chicks with Pasteurella multocida (0.1 ml of a 10^-4 dilution of a twenty-hour tryptose broth culture of an avian P. multocida given subcutaneously). In these tests, unless indicated otherwise, all non-medicated infected chicks died within 24 hours of Pasteurella challenge. In the tests summarized in Table XII, the compounds were administered by subcutaneous injection at a dosage of 30 mg/kg, 1 and 4 hours post-challenge of the chicks with P. multocida. In the tests summarized in Table XIII the compounds were administered in medicated drinking water (at a level of 2 g/gal) available from 4 to 20 hours prior to challenge of the chicks with P. multocida and during the 3 -day test period.
^a Administered subcutaneously; 30 mg/kg × 2

[18] = Titratable groups in 66% aqueous DMF (Tables XIV-XVI); format: physicochemical
Source text: ^c Run in 66% aqueous DMF
^d Run in 66% aqueous DMF

[19] = system: Streptococcus pyogenes C203; experiment: ED50 in mice experimentally infected with S. pyogenes C203 (Table XI); format: in vivo; settings: Streptococcus pyogenes, doses given 1 and 4 hours postinfection, read-out: ED50
Description: The C-20 modified derivatives of this invention have shown in vivo antimicrobial activity against experimentally-induced infections in laboratory animals. When two doses of test compound were administered to mice experimentally infected with S. pyogenes C203, the activity observed was measured as an ED50 value [effective dose in mg/kg to protect 50% of the test animals: see Warren Wick, et al., J. Bacteriol. 81, 233-235 (1961)].
^a mg/kg × 2; doses given 1 and 4 hours postinfection

Pasteurella multocida [20] = experiment: Pasteurella infection in one-day-old chicks, medicated drinking water (Table XIII); format: in vivo; settings: Administered in the available drinking water at 2 g/gal
Description: as §2
^a Administered in the available drinking water at a concentration of […]

[21] = Staphylococcus aureus, read-out: MIC
[22] = Mycoplasmoides gallisepticum, read-out: MIC
[23] = Mesomycoplasma hyopneumoniae, read-out: MIC
[24] = Mycoplasmopsis synoviae, read-out: MIC
[25] = Titratable groups (first value)

`CCC1OC(=O)CC(O)C(C)C(OC2OC(C)C(O)C(N(C)C)C2O)C(CCN2CCC(C)CC(C)(C)C2)CC(C)C(=O)C=CC(C)=CC1COC1OC(C)C(O)C(OC)C1OC` (single isomer, unassigned) [Compound D24, 20-DH-DO-20-(3,3,5-Trimethylhexahydroazepin-1-yl)desmycosin] gave an MIC (Staphyloccus aureus X1.1) of 0.5 µg/mL (≈ 0.557 µM), an MIC [1] of 0.5 µg/mL (≈ 0.557 µM) and an MIC [2] of 1 µg/mL (≈ 1.11 µM). The MIC ([3]; Staphylococcus aureus S13E, agar-dilution) was 0.5 µg/mL (≈ 0.557 µM), the MIC ([4]; Staphylococcus epidermidis EPI1, agar-dilution) was 0.5 µg/mL (≈ 0.557 µM) and the MIC [5] was 0.25 µg/mL (≈ 0.279 µM). For the same compound, the MIC [6] was 0.25 µg/mL (≈ 0.279 µM), the MIC ([7]; Streptococcus pneumoniae Park I, agar-dilution) was 1 µg/mL (≈ 1.11 µM) and the MIC [8] was 4 µg/mL (≈ 4.46 µM). The MIC [9] was 8 µg/mL (≈ 8.92 µM), the MIC [10] was 32 µg/mL (≈ 35.7 µM) and the MIC [11] was 8 µg/mL (≈ 8.92 µM). For the same compound, the MIC (Escherichia coli N10) was 64 µg/mL (≈ 71.3 µM), the MIC (Escherichia coli EC14) was 64 µg/mL (≈ 71.3 µM) and the MIC (Escherichia coli TEM) was 32 µg/mL (≈ 35.7 µM). It also gave an MIC (Klebsiella X26) of 128 µg/mL (≈ 143 µM), an MIC [12] of 0.39 µg/mL (≈ 0.435 µM) and an MIC [13] of 0.78 µg/mL (≈ 0.869 µM). The MIC (Mycoplasma hyorhinis 29E) was 25 µg/mL (≈ 27.9 µM), the MIC (Mycoplasma synoviae 40A) was 0.097 µg/mL (≈ 0.108 µM) and the MIC [14] was 6.25 µg/mL (≈ 6.97 µM). For the same compound, the MIC [15] was 12.5 µg/mL (≈ 13.9 µM), the MIC [16] was 6.25 µg/mL (≈ 6.97 µM) and the MIC (Staphylococcus aureus) was 3.12 µg/mL (≈ 3.48 µM). The MIC (Streptococcus sp. 19F) was 3.12 µg/mL (≈ 3.48 µM), the “Number of Deaths/Number Treated” value (Pasteurella multocida [17]) was 2/10 and the “Titratable groups” value [18] was 9.4. For the same compound, the “Titratable groups (first value)” value [18] was 7.9.
In the case of `CCC1OC(=O)CC(O)C(C)C(OC2OC(C)C(O)C(N(C)C)C2O)C(CCN2CC3CCC(CC3)C2)CC(C)C(=O)C=CC(C)=CC1COC1OC(C)C(O)C(OC)C1OC` (stereo not shown) [Compound D14, 20-DH-DO-20-[3-azabicyclo[3.2.2]nonan-3-yl]desmycosin], the MIC (Staphyloccus aureus X1.1; [21]) is reported as 0.25 µg/mL (≈ 0.284 µM), the MIC ([1]; read-out: MIC) is reported as 0.25 µg/mL (≈ 0.284 µM) and the MIC ([2]; read-out: MIC) is reported as 0.5 µg/mL (≈ 0.567 µM). The MIC ([3]; Staphylococcus aureus, S13E) was 0.25 µg/mL (≈ 0.284 µM), the MIC ([4]; Staphylococcus epidermidis, EPI1) was 0.5 µg/mL (≈ 0.567 µM) and the MIC ([5]; read-out: MIC) was 0.12 µg/mL (≈ 0.136 µM). The MIC ([7]; Streptococcus pneumoniae) was 0.5 µg/mL (≈ 0.567 µM), the MIC ([8]; read-out: MIC) was 4 µg/mL (≈ 4.54 µM) and the MIC ([9]; GROUPD2041, read-out: MIC) was 4 µg/mL (≈ 4.54 µM). It also gave an MIC ([10]; read-out: MIC) of 4 µg/mL (≈ 4.54 µM), an MIC ([11]; read-out: MIC) of 8 µg/mL (≈ 9.08 µM) and an MIC (Escherichia coli N10; read-out: MIC) of 32 µg/mL (≈ 36.3 µM). For the same compound, the MIC (Escherichia coli EC14; read-out: MIC) was 32 µg/mL (≈ 36.3 µM), the MIC (Escherichia coli TEM; read-out: MIC) was 16 µg/mL (≈ 18.2 µM) and the MIC (Klebsiella X26; read-out: MIC) was 8 µg/mL (≈ 9.08 µM). The MIC [12, 22] was 1.56 µg/mL (≈ 1.77 µM), the MIC [13, 23] was 0.78 µg/mL (≈ 0.885 µM) and the MIC (Mycoplasma hyorhinis 29E; read-out: MIC) was 50 µg/mL (≈ 56.7 µM). The MIC (Mycoplasma synoviae 40A; [24]) was 0.39 µg/mL (≈ 0.443 µM), the MIC ([14]; read-out: MIC) was 1.56 µg/mL (≈ 1.77 µM) and the MIC ([15]; read-out: MIC) was 3.12 µg/mL (≈ 3.54 µM). It also gave an MIC ([16]; read-out: MIC) of 3.12 µg/mL (≈ 3.54 µM), an MIC (Staphylococcus aureus; read-out: MIC) of 0.78 µg/mL (≈ 0.885 µM) and an MIC (Streptococcus sp. 19F; read-out: MIC) of 1.56 µg/mL (≈ 1.77 µM). For the same compound, the ED50 ([19]; C203, Oral) was 50 mg/kg, the ED50 ([19]; C203, sc, Subcutaneous) was 1 mg/kg and the “Number of Deaths/Number Treated” value (Pasteurella multocida [17]) was 2/10. For the same compound, the “Number of Deaths/Number Treated” value (Pasteurella multocida [20]) was 0/10, the pKa ([18]; Titratable groups) was 9.2 and the pKa [18, 25] was 7.9.
With `CCC1OC(=O)CC(O)C(C)C(OC2OC(C)C(O)C(N(C)C)C2O)C(CCN2CCCC3CCCCC32)CC(C)C(=O)C=CC(C)=CC1COC1OC(C)C(O)C(OC)C1OC` (stereo not shown) [Compound D20, 20-DH-DO-20-(decahydroquinolin-1-yl)desmycosin] the MIC (Staphyloccus aureus X1.1; [21]) was 0.5 µg/mL (≈ 0.559 µM), the MIC ([1]; read-out: MIC) was 0.5 µg/mL (≈ 0.559 µM) and the MIC ([2]; read-out: MIC) was 0.5 µg/mL (≈ 0.559 µM). The MIC ([3]; Staphylococcus aureus, S13E) was 0.5 µg/mL (≈ 0.559 µM), the MIC ([4]; Staphylococcus epidermidis EPI1, agar-dilution, read-out: MIC) was 0.5 µg/mL (≈ 0.559 µM) and the MIC ([5]; read-out: MIC) was 0.25 µg/mL (≈ 0.279 µM). The MIC ([6]; read-out: MIC) was 0.25 µg/mL (≈ 0.279 µM), the MIC ([7]; Streptococcus pneumoniae Park I, agar-dilution, read-out: MIC) was 0.12 µg/mL (≈ 0.134 µM) and the MIC ([8]; read-out: MIC) was 8 µg/mL (≈ 8.94 µM). The MIC ([9]; GROUPD2041, read-out: MIC) was 8 µg/mL (≈ 8.94 µM), the MIC ([10]; read-out: MIC) was 16 µg/mL (≈ 17.9 µM) and the MIC ([11]; read-out: MIC) was 16 µg/mL (≈ 17.9 µM). The MIC (Escherichia coli N10; read-out: MIC) was 128 µg/mL (≈ 143 µM), the MIC (Escherichia coli EC14; read-out: MIC) was 128 µg/mL (≈ 143 µM) and the MIC (Escherichia coli TEM; read-out: MIC) was 32 µg/mL (≈ 35.7 µM). For the same compound, the MIC (Klebsiella X26; read-out: MIC) was 16 µg/mL (≈ 17.9 µM), the MIC [12, 22] was 0.78 µg/mL (≈ 0.871 µM) and the MIC [13, 23] was 0.78 µg/mL (≈ 0.871 µM). It also gave an MIC (Mycoplasma hyorhinis 29E; read-out: MIC) of 50 µg/mL (≈ 55.9 µM), an MIC (Mycoplasma synoviae 40A; [24]) of 0.195 µg/mL (≈ 0.218 µM) and an MIC ([14]; read-out: MIC) of 3.12 µg/mL (≈ 3.49 µM). The MIC ([15]; read-out: MIC) was 3.12 µg/mL (≈ 3.49 µM), the MIC ([16]; read-out: MIC) was 3.12 µg/mL (≈ 3.49 µM) and the MIC (Staphylococcus aureus; read-out: MIC) was 0.78 µg/mL (≈ 0.871 µM). For the same compound, the MIC (Streptococcus sp. 19F; read-out: MIC) was 3.12 µg/mL (≈ 3.49 µM), the ED50 ([19]; C203, Oral) was 34 mg/kg and the ED50 ([19]; C203, sc, Subcutaneous) was 1.7 mg/kg. The “Number of Deaths/Number Treated” value (Pasteurella multocida [20]) was 0/10, the pKa ([18]; Titratable groups) was 9.4 and the pKa [18, 25] was 7.9.
